Laboratory results published in patent US20140303164A1, “THERAPEUTIC COMPOUNDS” (Gilead Sciences, Inc., priority 2013, published 2014).

Legend:
HIV-IIIb = assay: Test A: Antiviral Assay in MT4 Cells; format: cell-based, HIV-1; conditions: Human immunodeficiency virus 1, IIIB, MT4, 120 h; for inhibition at 0.2 µM: read-out: % inhibition at 0.2 μM; for inhibition at 2 µM: read-out: % inhibition at 2 μM
Experimental: Test A: Antiviral Assay in MT4 Cells
MT-4 cells were next mixed with HIV-IIIb at an m.o.i of 0.003 for 1 hour, after which time 35 μL of virus/cell mixture (2000 cells) was immediately added to each well containing 40 μL of diluted compound. The plates were then incubated at 37° C. for 5 days. […] Cell lysis was carried out by incubating at room temperature for 10 min and then chemiluminescence was read.

[1] = Test B: Cytotoxicity Assay; format: cell-based; conditions: human, uninfected MT-4 cells, same protocol as Test A
Method in brief: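 Uninfected MT-4 cells (2000 per well) incubated with diluted compound at 37° C. for 5 days, following the antiviral protocol without HIV-IIIb.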

Structure (SMILES) | inhibition at 0.2 µM (HIV-IIIb) [%] | inhibition at 2 µM (HIV-IIIb) [%] | CC50 at 5 days [1] [µM]
Cn1cc(-c2ccc(-c3cccc4c(NS(C)(=O)=O)nn(C)c34)c([C@H](Cc3cc(F)cc(F)c3)NC(=O)Cn3nc(C(F)(F)F)c4c3C(F)(F)[C@@H]3C[C@H]43)n2)cn1 [Compound 60, 2-((3bS,4aR)-5,5-difluoro-3-(trifluoromethyl)-3b,4,4a,5-tetrahydro-1H-cyclopropa[3,4]cyclopenta[1,2-c]pyrazol-1-yl)-N—((S)-2-(3,5-difluorophenyl)-1-(6-(1-methyl-1H-pyrazol-4-yl)-3-(1-methyl-3-(methylsulfonamido)-1H-indazol-7-yl)pyridin-2-yl)ethyl)acetamide] | 86 | 96 | 14.3
CC(=O)Nc1nn(CC(=O)N[C@@H](Cc2cc(F)cc(F)c2)c2nc(C#CC(C)(C)O)ccc2-c2ccc(Cl)c3c(NS(C)(=O)=O)nn(C)c23)c2c1[C@H]1C[C@H]1C2(F)F [Compound 163, 2-((3bS,4aR)-3-acetamido-5,5-difluoro-3b,4,4a,5-tetrahydro-1H-cyclopropa[3,4]cyclopenta[1,2-c]pyrazol-1-yl)-N—((S)-1-(3-(4-chloro-1-methyl-3-(methylsulfonamido)-1H-indazol-7-yl)-6-(3-hydroxy-3-methylbut-1-yn-1-yl)pyridin-2-yl)-2-(3,5-difluorophenyl)ethyl)acetamide] | 79 | 86 | 8.85
COc1ccc(-c2ccc(C#CC(C)(C)O)nc2[C@H](Cc2cc(F)cc(F)c2)NC(=O)Cn2nc(C(F)F)c3c2C(F)(F)[C@@H]2C[C@H]32)c2c1c(N)nn2C [Compound 114G, N—((S)-1-(3-(3-amino-4-methoxy-1-methyl-1H-indazol-7-yl)-6-(3-hydroxy-3-methylbut-1-yn-1-yl)pyridin-2-yl)-2-(3,5-difluorophenyl)ethyl)-2-((3b-S,4aR)-3-(difluoromethyl)-5,5-difluoro-3b,4,4a,5-tetrahydro-1H-cyclopropa[3,4]cyclopenta[1,2-c]pyrazol-1-yl)acetamide] | 100 | 100 | 14.8
Cn1ncc2c(Cl)ccc(-c3ccc(C#CC(C)(C)O)nc3[C@H](Cc3cc(F)cc(F)c3)NC(=O)Cn3nc(C(F)F)c4c3C(F)(F)[C@@H]3C[C@H]43)c21 [Compound 137C, N—((S)-1-(3-(4-chloro-1-methyl-1H-indazol-7-yl)-6-(3-hydroxy-3-methylbut-1-yn-1-yl)pyridin-2-yl)-2-(3,5-difluorophenyl)ethyl)-2-((3b-S,4aR)-3-(difluoromethyl)-5,5-difluoro-3b,4,4a,5-tetrahydro-1H-cyclopropa[3,4]cyclopenta[1,2-c]pyrazol-1-yl)acetamide] | 93 | 100 | 7.88
C[C@H](O)C(=O)Nc1nn(C)c2c(-c3ccc(C#CC(C)(C)O)nc3[C@H](Cc3cc(F)cc(F)c3)NC(=O)Cn3nc(C(F)F)c4c3C(F)(F)[C@@H]3C[C@H]43)ccc(Cl)c12 [Compound 103, (S)—N-(4-chloro-7-(2-((S)-1-(2-((3bS,4aR)-3-(difluoromethyl)-5,5-difluoro-3b,4,4a,5-tetrahydro-1H-cyclopropa[3,4]cyclopenta[1,2-c]pyrazol-1-yl)acetamido)-2-(3,5-difluorophenyl)ethyl)-6-(3-hydroxy-3-methylbut-1-yn-1-yl)pyridin-3-yl)-1-methyl-1H-indazol-3-yl)-2-hydroxypropanamide] | 100 | 100 | 6.79
Cn1nc(NS(C)(=O)=O)c2c(Cl)ccc(-c3ccc(C#CC(C)(C)O)nc3[C@H](Cc3cc(F)cc(F)c3)NC(=O)Cn3nc(C4(O)CC4)c4c3CCCC4)c21 [Compound 156E, (S)—N-(1-(3-(4 chloro-1-methyl-3-(methylsulfonamido)-1H-indazol-7-yl)-6-(3-hydroxy-3-methylbut-1-yn-1-yl)pyridin-2-yl)-2-(3,5-difluorophenyl)ethyl)-2-(3-(1-hydroxycyclopropyl)-4,5,6,7-tetrahydro-1H-indazol-1-yl)acetamide] | 78 | 78 | 25.6
CCC(O)(C#Cc1ccc(-c2cccc3c(NS(C)(=O)=O)nn(C)c23)c([C@H](Cc2cc(F)cc(F)c2)NC(=O)Cn2nc(C(F)(F)F)c3c2C(F)(F)[C@@H]2C[C@H]32)n1)CC [Compound 66, 2-((3bS,4aR)-5,5-difluoro-3-(trifluoromethyl)-3b,4,4a,5-tetrahydro-1H-cyclopropa[3,4]cyclopenta[1,2-c]pyrazol-1-yl)-N—((S)-2-(3,5-difluorophenyl)-1-(6-(3-ethyl-3-hydroxypent-1-yn-1-yl)-3-(1-methyl-3-(methylsulfonamido)-1H-indazol-7-yl)pyridin-2-yl)ethyl)acetamide] | 97 | 97 | 6.96
CN1CCN(S(=O)(=O)Nc2nn(C)c3c(-c4ccc(C#CC(C)(C)O)nc4[C@H](Cc4cc(F)cc(F)c4)NC(=O)Cn4nc(C(F)(F)F)c5c4C(F)(F)[C@@H]4C[C@H]54)cccc23)CC1 [Compound 56F, 2-((3bS,4aR)-5,5-difluoro-3-(trifluoromethyl)-3b,4,4a,5-tetrahydro-1H-cyclopropa[3,4]cyclopenta[1,2-c]pyrazol-1-yl)-N—((S)-2-(3,5-difluorophenyl)-1-(6-(3-hydroxy-3-methylbut-1-yn-1-yl)-3-(1-methyl-3-(4-methylpiperazine-1-sulfonamido)-1H-indazol-7-yl)pyridin-2-yl)ethyl)acetamide] | 97 | 97 | 19
CC(C)C(O)C#Cc1ccc(-c2cccc3c(NS(C)(=O)=O)nn(C)c23)c([C@H](Cc2cc(F)cc(F)c2)NC(=O)Cn2nc(C(F)(F)F)c3c2C(F)(F)[C@@H]2C[C@H]32)n1 (stereo partly drawn) [Compound 64, 2-((3bS,4aR)-5,5-difluoro-3-(trifluoromethyl)-3b,4,4a,5-tetrahydro-1H-cyclopropa[3,4]cyclopenta[1,2-c]pyrazol-1-yl)-N-((1S)-2-(3,5-difluorophenyl)-1-(6-(3-hydroxy-4-methylpent-1-yn-1-yl)-3-(1-methyl-3-(methylsulfonamido)-1H-indazol-7-yl)pyridin-2-yl)ethyl)acetamide] | 98 | 98 | 7.7
Cn1cnc(S(=O)(=O)Nc2nn(C)c3c(-c4ccc(C#CC(C)(C)O)nc4[C@H](Cc4cc(F)cc(F)c4)NC(=O)Cn4nc(C(F)(F)F)c5c4C(F)(F)[C@@H]4C[C@H]54)cccc23)c1 [Compound 47, 2-((3bS,4aR)-5,5-difluoro-3-(trifluoromethyl)-3b,4,4a,5-tetrahydro-1H-cyclopropa[3,4]cyclopenta[1,2-c]pyrazol-1-yl)-N—((S)-2-(3,5-difluorophenyl)-1-(6-(3-hydroxy-3-methylbut-1-yn-1-yl)-3-(1-methyl-3-(1-methyl-1H-imidazole-4-sulfonamido)-1H-indazol-7-yl)pyridin-2-yl)ethyl)acetamide] | 100 | 100 | 21.4
CC(C(=O)N[C@@H](Cc1cc(F)cc(F)c1)c1nc(C#CC(C)(C)O)ccc1-c1ccc(Cl)c2c(NS(C)(=O)=O)nn(C)c12)c1ccccc1 (stereo partly drawn) [Compound 195, N—((S)-1-(3-(4-chloro-1-methyl-3-(methylsulfonamido)-1H-indazol-7-yl)-6-(3-hydroxy-3-methylbut-1-yn-1-yl)pyridin-2-yl)-2-(3,5-difluorophenyl)ethyl)-2-phenylpropanamide] | 88 | 90 | 11.2
